Reference: ChEMBL document CHEMBL5338706, “Discovery of a potent and selective proteolysis targeting chimera (PROTAC) degrader of NSD3 histone methyltransferase” (Eur J Med Chem, 2022)
Active and inactive are the calls of the source. No cut-off for these calls is given here.

What was measured:
[1] = Downregulation of NSD3 level in human NCI-H1703 cells at […] by measuring fold change by Western blot analysis relative to control; type: functional; settings: dose 7.5 µM
[2] = target: T1, Histone-lysine N-methyltransferase NSD3 (Homo sapiens, UniProt Q9BZ95); test: (§1) Induction of NSD3 degradation in human NCI-H1703 cells incubated for 72 hrs by Western blot analysis; type: cell-based
T1 sequence (Q9BZ95 whole entry): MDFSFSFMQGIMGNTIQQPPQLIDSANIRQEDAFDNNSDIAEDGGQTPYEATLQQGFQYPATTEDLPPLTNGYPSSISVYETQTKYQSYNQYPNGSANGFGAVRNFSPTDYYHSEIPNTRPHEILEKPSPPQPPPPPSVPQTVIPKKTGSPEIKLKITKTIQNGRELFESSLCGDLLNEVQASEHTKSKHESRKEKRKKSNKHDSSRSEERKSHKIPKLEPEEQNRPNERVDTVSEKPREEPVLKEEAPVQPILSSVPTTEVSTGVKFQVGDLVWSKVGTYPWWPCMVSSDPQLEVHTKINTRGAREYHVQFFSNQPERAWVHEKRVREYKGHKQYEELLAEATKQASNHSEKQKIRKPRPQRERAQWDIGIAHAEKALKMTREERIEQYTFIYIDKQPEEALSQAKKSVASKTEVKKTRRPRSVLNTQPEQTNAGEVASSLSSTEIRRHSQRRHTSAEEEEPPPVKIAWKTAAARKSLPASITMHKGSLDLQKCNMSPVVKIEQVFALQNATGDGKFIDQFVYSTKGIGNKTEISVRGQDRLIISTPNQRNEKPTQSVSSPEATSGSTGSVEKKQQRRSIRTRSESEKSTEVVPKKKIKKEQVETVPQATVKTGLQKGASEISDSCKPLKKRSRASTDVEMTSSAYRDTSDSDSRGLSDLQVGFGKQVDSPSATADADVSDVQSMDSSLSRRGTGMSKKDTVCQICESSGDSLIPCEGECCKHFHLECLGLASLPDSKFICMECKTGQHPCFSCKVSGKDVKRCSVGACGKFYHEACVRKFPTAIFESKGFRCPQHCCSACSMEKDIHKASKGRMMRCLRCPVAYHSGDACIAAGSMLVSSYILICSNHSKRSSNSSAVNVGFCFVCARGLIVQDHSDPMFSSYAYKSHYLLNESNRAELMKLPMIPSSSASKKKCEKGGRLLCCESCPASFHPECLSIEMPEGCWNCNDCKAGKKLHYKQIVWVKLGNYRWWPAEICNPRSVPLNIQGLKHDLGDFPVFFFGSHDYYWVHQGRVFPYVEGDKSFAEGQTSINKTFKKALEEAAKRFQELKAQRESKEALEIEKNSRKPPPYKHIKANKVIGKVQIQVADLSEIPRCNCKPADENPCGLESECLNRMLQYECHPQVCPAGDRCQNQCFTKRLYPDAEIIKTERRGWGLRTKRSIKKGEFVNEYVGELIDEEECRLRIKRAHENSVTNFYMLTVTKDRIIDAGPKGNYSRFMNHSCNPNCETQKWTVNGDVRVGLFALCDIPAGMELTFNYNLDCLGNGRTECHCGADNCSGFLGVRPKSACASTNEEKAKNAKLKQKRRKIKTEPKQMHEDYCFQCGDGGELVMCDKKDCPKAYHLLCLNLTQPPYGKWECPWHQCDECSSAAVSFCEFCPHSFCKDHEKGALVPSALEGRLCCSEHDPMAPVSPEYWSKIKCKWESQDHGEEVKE

[3] = target: T2, Histone-lysine N-methyltransferase NSD3 (Homo sapiens) (UniProt Q9BZ95); test: as §1; type: cell-based; settings: dose 0.001-5 µM
T2 sequence (whole entry): T1 sequence (Q9BZ95 whole entry)

NCI-H1703 = test: Induction of apoptosis in human NCI-H1703 cells assessed as decrease in NSD3 protein expression at 10 uM by measuring fold change by Western blot analysis relative to control; type: functional
[4] = Downregulation of c-Myc level in human NCI-H520 cells at 3 uM by measuring fold change by Western blot analysis relative to control; type: functional
[5] = target: Histone-lysine N-methyltransferase, H3 lysine-36 specific (Homo sapiens) (UniProt Q96L73); test: Induction of NSD1 degradation in human A549 cells at 5 to 10 uM incubated for 72 hrs by Western blot analysis; type: cell-based; settings: dose 5-10 µM
Chain of Histone-lysine N-methyltransferase, H3 lysine-36 specific (Homo sapiens) (Q96L73 whole entry): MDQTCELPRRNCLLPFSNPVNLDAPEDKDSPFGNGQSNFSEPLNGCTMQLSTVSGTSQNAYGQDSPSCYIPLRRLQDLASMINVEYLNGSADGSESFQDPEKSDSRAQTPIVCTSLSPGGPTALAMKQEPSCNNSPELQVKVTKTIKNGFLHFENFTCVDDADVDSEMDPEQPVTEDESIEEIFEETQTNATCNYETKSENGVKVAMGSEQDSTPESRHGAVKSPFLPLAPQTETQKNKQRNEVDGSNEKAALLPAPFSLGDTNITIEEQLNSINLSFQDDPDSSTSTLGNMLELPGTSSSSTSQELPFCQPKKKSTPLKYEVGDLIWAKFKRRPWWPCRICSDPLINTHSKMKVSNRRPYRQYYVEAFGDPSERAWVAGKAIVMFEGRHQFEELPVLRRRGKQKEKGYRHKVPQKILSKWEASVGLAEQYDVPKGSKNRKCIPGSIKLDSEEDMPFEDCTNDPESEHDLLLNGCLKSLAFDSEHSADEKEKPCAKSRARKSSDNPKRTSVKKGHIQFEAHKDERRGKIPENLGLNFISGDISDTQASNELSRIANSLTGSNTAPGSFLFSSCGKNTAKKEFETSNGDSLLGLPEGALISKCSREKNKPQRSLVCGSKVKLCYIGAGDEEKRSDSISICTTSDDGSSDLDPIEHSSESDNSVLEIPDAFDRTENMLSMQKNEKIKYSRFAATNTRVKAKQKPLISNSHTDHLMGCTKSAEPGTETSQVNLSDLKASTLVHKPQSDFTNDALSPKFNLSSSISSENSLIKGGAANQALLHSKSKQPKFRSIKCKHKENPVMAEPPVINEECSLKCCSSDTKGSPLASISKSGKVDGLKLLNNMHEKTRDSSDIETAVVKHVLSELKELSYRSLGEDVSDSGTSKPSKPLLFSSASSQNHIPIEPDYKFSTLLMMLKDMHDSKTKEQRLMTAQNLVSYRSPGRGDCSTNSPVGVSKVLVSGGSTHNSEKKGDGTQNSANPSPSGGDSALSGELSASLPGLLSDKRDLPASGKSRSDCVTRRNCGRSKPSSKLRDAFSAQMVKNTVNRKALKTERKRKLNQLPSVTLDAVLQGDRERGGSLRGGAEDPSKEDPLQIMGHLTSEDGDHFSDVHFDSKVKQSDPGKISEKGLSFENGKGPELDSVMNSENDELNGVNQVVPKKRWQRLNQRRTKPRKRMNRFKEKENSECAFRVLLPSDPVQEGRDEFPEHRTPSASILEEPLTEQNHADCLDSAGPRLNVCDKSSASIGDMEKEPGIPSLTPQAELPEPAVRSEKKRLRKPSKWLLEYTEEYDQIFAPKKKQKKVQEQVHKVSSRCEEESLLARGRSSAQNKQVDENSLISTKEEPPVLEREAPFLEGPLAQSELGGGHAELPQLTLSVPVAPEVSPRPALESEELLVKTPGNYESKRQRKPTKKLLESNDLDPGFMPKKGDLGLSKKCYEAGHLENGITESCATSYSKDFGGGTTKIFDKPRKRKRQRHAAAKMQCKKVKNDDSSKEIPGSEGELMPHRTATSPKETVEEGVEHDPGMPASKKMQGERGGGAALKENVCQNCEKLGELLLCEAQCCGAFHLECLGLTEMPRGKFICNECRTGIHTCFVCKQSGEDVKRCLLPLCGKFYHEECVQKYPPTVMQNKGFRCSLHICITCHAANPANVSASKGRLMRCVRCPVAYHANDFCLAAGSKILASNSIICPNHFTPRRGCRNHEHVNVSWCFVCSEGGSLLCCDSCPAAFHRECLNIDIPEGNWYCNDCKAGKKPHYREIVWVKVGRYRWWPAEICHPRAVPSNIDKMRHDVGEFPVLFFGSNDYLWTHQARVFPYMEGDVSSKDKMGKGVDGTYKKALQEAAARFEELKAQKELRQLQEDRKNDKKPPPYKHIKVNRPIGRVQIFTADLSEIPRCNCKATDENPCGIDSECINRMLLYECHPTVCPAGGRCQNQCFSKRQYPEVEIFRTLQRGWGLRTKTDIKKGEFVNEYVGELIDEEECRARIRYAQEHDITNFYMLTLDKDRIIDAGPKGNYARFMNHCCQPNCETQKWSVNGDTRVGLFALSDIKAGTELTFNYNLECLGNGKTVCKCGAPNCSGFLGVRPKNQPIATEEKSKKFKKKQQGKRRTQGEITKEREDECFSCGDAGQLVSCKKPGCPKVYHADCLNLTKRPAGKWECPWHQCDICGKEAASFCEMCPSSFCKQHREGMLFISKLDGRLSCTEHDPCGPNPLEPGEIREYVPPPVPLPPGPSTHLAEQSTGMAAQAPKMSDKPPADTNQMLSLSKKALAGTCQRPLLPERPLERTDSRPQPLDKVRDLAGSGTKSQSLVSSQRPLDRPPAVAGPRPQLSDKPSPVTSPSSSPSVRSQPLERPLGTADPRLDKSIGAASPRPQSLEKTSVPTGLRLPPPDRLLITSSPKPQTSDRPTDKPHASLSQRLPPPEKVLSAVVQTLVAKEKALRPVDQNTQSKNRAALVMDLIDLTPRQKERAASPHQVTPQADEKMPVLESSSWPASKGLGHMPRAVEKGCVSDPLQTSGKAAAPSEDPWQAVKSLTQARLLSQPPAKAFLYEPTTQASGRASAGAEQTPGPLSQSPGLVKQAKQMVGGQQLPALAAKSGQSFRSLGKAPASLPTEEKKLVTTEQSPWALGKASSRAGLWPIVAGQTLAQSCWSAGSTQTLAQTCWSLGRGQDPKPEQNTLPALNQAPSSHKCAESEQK

- EC50 [2]: 1430 nM
- Activity [3]: Dose-Dependent Effect
- Activity [5]: inactive
Structure (SMILES): Cc1cc(CNCCCCCCCCCCC(=O)N[C@H](C(=O)N2C[C@H](O)C[C@H]2C(=O)N[C@@H](C)c2ccc(-c3scnc3C)cc2)C(C)(C)C)cc(C)c1-c1ncn(C)c1-c1ccnc2cc(F)ccc12
- fold change (FC) [1]: 0.66
- fold change (FC) (NCI-H1703): 0.63
- fold change (FC) [4]: 1.03
